One test deals with BCLXL (Homo sapiens, UniProt Q07817, V10N/V9A). As to the kind of experiment: Fluorescence polarisation assay (PUMA-based probe displacement). Also: 20 nM protein, 10 nM fluorescent probe. The test is classed as binding. On the technique in general: In fluorescence polarisation assays a small probe gives low polarisation when free and higher when bound to something large.
For another test, the system named is H146 cells. Description: H146 cell viability, MTT assay. The test is classed as cell-based. The note with it: Homo sapiens, NCI-H146, 48 h, 48 h exposure. The gist of the method:
(§1)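 Cells grown in RPMI 1640 with 10% heat-inactivated FBS at 37° C, 5% CO2, exposed 48 h to nine 3.16-fold serial compound dilutions in triplicate. MTT added for 4 h, SDS/HCl solubilisation overnight, absorbance at 540 nm; IC50 by four-parameter fit.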
A general note: Formazan colour is commonly taken as a measure of viable cells.

The next test concerns MOLT-4 cells. As to the kind of experiment: MOLT-4 cell viability, MTT assay. The note with it: Homo sapiens, MOLT-4, 48 h, 48 h exposure. Format: cell-based. The method, boiled down: as §1

BCLXL, sequence (Q07817 with tags, fused parts or gaps V9A/V10N): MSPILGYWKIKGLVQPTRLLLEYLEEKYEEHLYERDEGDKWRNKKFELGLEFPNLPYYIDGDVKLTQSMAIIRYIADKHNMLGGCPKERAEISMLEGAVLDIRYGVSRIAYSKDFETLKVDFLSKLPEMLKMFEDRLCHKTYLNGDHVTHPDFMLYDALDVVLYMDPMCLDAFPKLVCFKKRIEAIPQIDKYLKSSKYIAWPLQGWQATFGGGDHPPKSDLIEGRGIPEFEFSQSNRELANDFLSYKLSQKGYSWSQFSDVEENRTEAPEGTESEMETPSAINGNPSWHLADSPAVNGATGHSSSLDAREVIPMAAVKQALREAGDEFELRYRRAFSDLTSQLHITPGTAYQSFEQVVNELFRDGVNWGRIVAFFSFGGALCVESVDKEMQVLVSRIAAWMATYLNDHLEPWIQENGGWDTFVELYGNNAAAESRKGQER

The term Ki denotes the dissociation constant of the complex between target and ligand, obtained from inhibition or displacement. For orientation: IC50 means the concentration that gives 50% inhibition. Lower therefore signals higher potency. In the case of `Cc1c(-c2sc(N(C)c3cc(C4CC4)c(Nc4nc5ccccc5s4)nn3)nc2C(=O)O)cnn1CC12CC3CC(CC(C3)C1)C2` [Example 53, 5-{1-[(Adamantan-1-yl)methyl]-5-methyl-1H-pyrazol-4-yl}-2-({6-[(1,3-benzothiazol-2-yl)amino]-5-cyclopropylpyridazin-3-yl}(methyl)amino)-1,3-thiazole-4-carboxylic acid], at BCLXL, the Ki is 15 nM. Moreover, the half-maximal inhibitory concentration (IC50) in the test on H146 cells was 1650 nM; in the test with MOLT-4 cells, 701 nM.

As to `Cc1cc(N(C)c2ccc(C(=O)O)s2)nnc1Nc1nc2ccccc2s1` [Example 56, 5-({6-[(1,3-Benzothiazol-2-yl)amino]-5-methylpyridazin-3-yl}(methyl)amino)thiophene-2-carboxylic acid], at BCLXL, the Ki is greater than 10000 nM. For the same compound, the 50% inhibitory concentration (IC50) with H146 cells and in the test on MOLT-4 cells was greater than 15000 nM in each case.

As for `Cc1c(Nc2nc(C(=O)O)cs2)nnc(Nc2nc3cc(F)c(F)cc3s2)c1C` [Example 57, 2-[[6-[(5,6-Difluoro-1,3-benzothiazol-2-yl)amino]-4,5-dimethyl-pyridazin-3-yl]amino]thiazole-4-carboxylic acid], the inhibition constant Ki on BCLXL was 350 nM. Moreover, the figures for the IC50 with H146 cells and with MOLT-4 cells were 13400 nM and greater than 15000 nM, respectively.

In the case of `Cc1c(Nc2nc(C(=O)O)cs2)nnc(Nc2nc3cc(F)ccc3s2)c1C` [Example 58, 2-[[6-[(5-Fluoro-1,3-benzothiazol-2-yl)amino]-4,5-dimethyl-pyridazin-3-yl]amino]thiazole-4-carboxylic acid], at BCLXL, the inhibition constant (Ki) is 49 nM. The 50% inhibitory concentration (IC50) in the test on H146 cells and in the test with MOLT-4 cells was greater than 15000 nM in each case.

`Cc1cc(N(C)c2nc(C(=O)O)c(CCCOC3CCCCC3)s2)nnc1Nc1nc2ccccc2s1` [Example 61, 2-({6-[(1,3-Benzothiazol-2-yl)amino]-5-methylpyridazin-3-yl}(methyl)amino)-5-[3-(cyclohexyloxy)propyl]-1,3-thiazole-4-carboxylic acid]: at BCLXL, the Ki is less than 1 nM. The results for the half-maximal inhibitory concentration (IC50) in the test with H146 cells and with MOLT-4 cells were 593 nM and 192 nM, respectively.

As to `COCCCc1sc(N(CCCOC)c2cc(C)c(Nc3nc4ccccc4s3)nn2)nc1C(=O)O` [Example 64, 2-({6-[(1,3-Benzothiazol-2-yl)amino]-5-methylpyridazin-3-yl}(3-methoxypropyl)amino)-5-(3-methoxypropyl)-1,3-thiazole-4-carboxylic acid], the inhibition constant (Ki) on BCLXL was determined as 31 nM. Further, the IC50 in the test on H146 cells turned out to be 22.4 nM; in the test on MOLT-4 cells, 3590 nM.

For the compound `COCCCN(c1cc(C)c(Nc2nc3ccccc3s2)nn1)c1nc(C(=O)O)c(CCCOC2CCCCC2)s1` [Example 66, 2-({6-[(1,3-Benzothiazol-2-yl)amino]-5-methylpyridazin-3-yl}(3-methoxypropyl)amino)-5-[3-(cyclohexyloxy)propyl]-1,3-thiazole-4-carboxylic acid], the Ki on BCLXL amounted to 1.9 nM. Further, the IC50 amounted to 1160 nM with H146 cells and 527 nM with MOLT-4 cells.

Regarding `COCCCN(c1cc(C)c(Nc2nc3ccccc3s2)nn1)c1nc(C(=O)O)c(CCCOc2ccccc2F)s1` [Example 67, 2-({6-[(1,3-Benzothiazol-2-yl)amino]-5-methylpyridazin-3-yl}(3-methoxypropyl)amino)-5-[3-(2-fluorophenoxy)propyl]-1,3-thiazole-4-carboxylic acid], on BCLXL, the Ki is less than 1 nM. Moreover, the concentration for half-maximal inhibition (IC50) worked out at 710 nM with H146 cells and 754 nM in the test on MOLT-4 cells.

`Cc1cc(N(C)c2nc(C(=O)O)c(N3CC(OCc4ccccc4)C3)s2)nnc1Nc1nc2ccccc2s1` [Example 68, 2-({6-[(1,3-Benzothiazol-2-yl)amino]-5-methylpyridazin-3-yl}(methyl)amino)-5-[3-(benzyloxy)azetidin-1-yl]-1,3-thiazole-4-carboxylic acid]: the Ki on BCLXL came to 5.7 nM. For the same compound, the concentration for half-maximal inhibition (IC50) was determined as 2600 nM in the test with H146 cells and 279 nM in the test with MOLT-4 cells.

In the case of `Cc1cc(N(C)c2nc(C(=O)O)c(N3CC(Oc4ccccc4)C3)s2)nnc1Nc1nc2ccccc2s1` [Example 69, 2-({6-[(1,3-Benzothiazol-2-yl)amino]-5-methylpyridazin-3-yl}(methyl)amino)-5-(3-phenoxyazetidin-1-yl)-1,3-thiazole-4-carboxylic acid], the inhibitory constant (Ki) on BCLXL was 4.2 nM. The concentration for half-maximal inhibition (IC50) in the test on H146 cells was determined as 686 nM; in the test on MOLT-4 cells it was 446 nM.

Take `Cc1cc(N(C)c2nc(C(=O)O)c(N3CC[C@H](OCc4ccccc4)C3)s2)nnc1Nc1nc2ccccc2s1` [Example 70, 2-({6-[(1,3-Benzothiazol-2-yl)amino]-5-methylpyridazin-3-yl}(methyl)amino)-5-[(3S)-3-(benzyloxy)pyrrolidin-1-yl]-1,3-thiazole-4-carboxylic acid]: the Ki on BCLXL is 30 nM. Besides, the IC50 in the test with H146 cells is greater than 15000 nM; in the test on MOLT-4 cells it was greater than 41600 nM.

As to `Cc1cc(N(C)c2nc(C(=O)O)c(N3CC[C@@H](OCc4ccccc4)C3)s2)nnc1Nc1nc2ccccc2s1` [Example 71, 2-({6-[(1,3-Benzothiazol-2-yl)amino]-5-methylpyridazin-3-yl}(methyl)amino)-5-[(3R)-3-(benzyloxy)pyrrolidin-1-yl]-1,3-thiazole-4-carboxylic acid], the inhibition constant Ki on BCLXL was greater than 10000 nM. The IC50 in the test with H146 cells and in the test on MOLT-4 cells was greater than 15000 nM in each case.

On to `Cc1cc(N(C)c2nc(C(=O)O)c(N3CCC(OCc4ccccc4)CC3)s2)nnc1Nc1nc2ccccc2s1` [Example 75, 2-({6-[(1,3-Benzothiazol-2-yl)amino]-5-methylpyridazin-3-yl}(methyl)amino)-5-[4-(benzyloxy)piperidin-1-yl]-1,3-thiazole-4-carboxylic acid], for which the inhibition constant Ki on BCLXL was less than 1 nM. Also, the IC50 with H146 cells is greater than 15000 nM; in the test on MOLT-4 cells, 2920 nM.

Consider `Cc1cc(N(C)c2nc(C(=O)O)c(N3CC[C@H](Oc4ccccc4)C3)s2)nnc1Nc1nc2ccccc2s1` [Example 77, 2-({6-[(1,3-Benzothiazol-2-yl)amino]-5-methylpyridazin-3-yl}(methyl)amino)-5-[(3S)-3-phenoxypyrrolidin-1-yl]-1,3-thiazole-4-carboxylic acid], for which the inhibitory constant (Ki) on BCLXL is 110 nM. For the same compound, the IC50 is no less than 14900 nM in the test with H146 cells and 6590 nM in the test with MOLT-4 cells.

For `Cc1cc(N(C)c2nc(C(=O)O)c(C3CCC3)s2)nnc1Nc1nc2ccccc2s1` [Example 78, 2-({6-[(1,3-Benzothiazol-2-yl)amino]-5-methylpyridazin-3-yl}(methyl)amino)-5-cyclobutyl-1,3-thiazole-4-carboxylic acid], the inhibitory constant (Ki) at BCLXL came out at 110 nM. Moreover, the half-inhibitory concentration (IC50) with H146 cells and in the test with MOLT-4 cells was greater than 15000 nM throughout.

Turning to `Cc1cc(N(C)c2nc(C(=O)O)c(CCCOc3ccc(C#CCN(C)C(=O)OC(C)(C)C)cc3F)s2)nnc1Nc1nc2ccccc2s1` [Example 82, 2-({6-[(1,3-Benzothiazol-2-yl)amino]-5-methylpyridazin-3-yl}(methyl)amino)-5-{3-[4-(3-{[(tert-butoxy)carbonyl](methyl)amino}prop-1-yn-1-yl)-2-fluorophenoxy]propyl}-1,3-thiazole-4-carboxylic acid], the Ki at BCLXL is less than 1 nM. In addition, the figures for the half-maximal inhibitory concentration (IC50) with H146 cells and with MOLT-4 cells were 98.8 nM and 68.3 nM, respectively.

Consider `Cc1cc(N(C)c2nc(C(=O)O)c(C3CCNCC3)s2)nnc1Nc1nc2ccccc2s1` [Example 83, 2-({6-[(1,3-Benzothiazol-2-yl)amino]-5-methylpyridazin-3-yl}(methyl)amino)-5-(piperidin-4-yl)-1,3-thiazole-4-carboxylic acid], for which, on BCLXL, the Ki worked out at 320 nM. In addition, the concentration for half-maximal inhibition (IC50) in the test on H146 cells and in the test with MOLT-4 cells was greater than 15000 nM in each case.

The values above are taken from US12649733B2, “3,6-diamino-pyridazin-3-yl derivatives, pharmaceutical compositions containing them and their uses as pro-apoptotic agents” (LES LABORATOIRES SERVIER, priority 2019, dated 2026).
